pIC50: −log10 of the molar value.
biological target: CDK2/Cyclin E1 (Homo sapiens (Human), UniProt P24941); test: CDK2/Cyclin E1 HTRF enzyme activity assay (Example A); type: biochemical; conditions: 1 mM ATP
Method: Assays were conducted in white 384-well polystyrene plates in a final reaction volume of 8 μL. […] HTRF signals were read after 1 hour at room temperature on a PHERAstar FS plate reader (BMG Labtech). Data was analyzed with IDBS XLFit and GraphPad Prism 5.0 software using a three or four parameter dose response curve to determine IC50 for each compound.

pIC50, ≥ 7.30:
C[C@@H]1CN(S(C)(=O)=O)CC[C@@H]1Nc1ncc(C(F)(F)F)c(-c2cn(CC(C)(C)O)cn2)n1 [Example 327, 2-Methyl-1-(4-(2-(((3R,4S)-3-methyl-1-(methylsulfonyl)piperidin-4-yl)amino)-5-(trifluoromethyl)pyrimidin-4-yl)-1H-imidazol-1-yl)propan-2-ol]
CN1CCN(c2nccc(-n3cnc(-c4nc(NC5CCN(S(C)(=O)=O)CC5)ncc4C(F)(F)F)c3)c2Cl)CC1 [Example 319, 4-(1-(3-Chloro-2-(4-methylpiperazin-1-yl)pyridin-4-yl)-1H-imidazol-4-yl)-N-(1-(methylsulfonyl)piperidin-4-yl)-5-(trifluoromethyl)pyrimidin-2-amine]
CN(C)Cc1cccc(-n2cnc(-c3nc(NC4CCN(S(C)(=O)=O)CC4)ncc3C(F)(F)F)c2)c1Cl [Example 77, 4-(1-(2-Chloro-3-((dimethylamino)methyl)phenyl)-1H-imidazol-4-yl)-N-(1-(methylsulfonyl)piperidin-4-yl)-5-(trifluoromethyl)pyrimidin-2-amine]
Cc1nc(-c2nc(NC3CCN(S(C)(=O)=O)CC3)ncc2C(F)(F)F)cn1-c1ccc(-c2ccnn2C)cc1F [Example 129, 4-(1-(2-Fluoro-4-(1-methyl-1H-pyrazol-5-yl)phenyl)-2-methyl-1H-imidazol-4-yl)-N-(1-(methylsulfonyl)-piperidin-4-yl)-5-(trifluoromethyl)-pyrimidin-2-amine]
Cc1nc(-c2nc(NC3CCN(S(C)(=O)=O)CC3)ncc2C(F)(F)F)cn1-c1ccc(-c2cnnn2C)cc1F [Example 128, 4-(1-(2-Fluoro-4-(1-methyl-1H-1,2,3-triazol-5-yl)phenyl)-2-methyl-1H-imidazol-4-yl)-N-(1-(methylsulfonyl)piperidin-4-yl)-5-(trifluoromethyl)pyrimidin-2-amine]
C[C@]1(O)CCN(Cc2ccc(-n3cnc(-c4nc(N[C@@H]5CCN(S(C)(=O)=O)C[C@H]5F)ncc4C(F)(F)F)c3)c(Cl)c2)C1 [Example 410, (S)-1-(3-Chloro-4-(4-(2-(((3R,4R)-3-fluoro-1-(methylsulfonyl)piperidin-4-yl)amino)-5-(trifluoromethyl)pyrimidin-4-yl)-1H-imidazol-1-yl)benzyl)-3-methylpyrrolidin-3-ol]
CCN(CC)Cc1ccc(-n2cnc(-c3nc(NC4CCN(S(C)(=O)=O)CC4)ncc3C(F)(F)F)c2)c(C(F)(F)F)c1 [Example 258, 4-(1-(4-((Diethylamino)methyl)-2-(trifluoromethyl)phenyl)-1H-imidazol-4-yl)-N-(1-(methylsulfonyl)piperidin-4-yl)-5-(trifluoromethyl)pyrimidin-2-amine]
Cc1ccc(-n2cnc(-c3nc(NC4CCN(S(=O)(=O)c5cnn(C)c5C)CC4)ncc3C(F)(F)F)c2)c(C#N)n1 [Example 90, 3-(4-(2-((1-((1,5-Dimethyl-1H-pyrazol-4-yl)sulfonyl)piperidin-4-yl)amino)-5-(trifluoromethyl)pyrimidin-4-yl)-1H-imidazol-1-yl)-6-methylpicolinonitrile]
CS(=O)(=O)N1CCC(Nc2ncc(C(F)(F)F)c(-c3cn(CC(F)F)cn3)n2)CC1 [Example 21, 4-(1-(2,2-Difluoroethyl)-1H-imidazol-4-yl)-N-(1-(methylsulfonyl)piperidin-4-yl)-5-(trifluoromethyl)pyrimidin-2-amine]
Cc1nccc(-n2cnc(-c3nc(N[C@H]4CCN(S(C)(=O)=O)C[C@H]4F)ncc3C(F)(F)F)c2)c1Cl [Example 301, 4-(1-(3-Chloro-2-methylpyridin-4-yl)-1H-imidazol-4-yl)-N-((3R,4S)-3-fluoro-1-(methylsulfonyl)piperidin-4-yl)-5-(trifluoromethyl)pyrimidin-2-amine]
CN1CCN(c2nccc(-n3cnc(-c4nc(NC5CCN(S(C)(=O)=O)CC5)ncc4C(F)(F)F)c3)c2C#N)CC1 [Example 316, 2-(4-Methylpiperazin-1-yl)-4-(4-(2-((1-(methylsulfonyl)piperidin-4-yl)amino)-5-(trifluoromethyl)pyrimidin-4-yl)-1H-imidazol-1-yl)nicotinonitrile]
CCNC(=O)c1ccc(-n2cnc(-c3nc(NC4CCN(S(C)(=O)=O)CC4)ncc3C(F)(F)F)c2)c(C)n1 [Example 134, N-Ethyl-6-methyl-5-(4-(2-((1-(methyl-sulfonyl)piperidin-4-yl)amino)-5-(trifluoromethyl)-pyrimidin-4-yl)-1H-imidazol-1-yl)picolinamide]
CN1CCN(c2ccc(-n3cnc(-c4nc(NC5CCN(S(C)(=O)=O)CC5)ncc4C(F)(F)F)c3)c(C#N)c2)CC1 [Example 430, 5-(4-Methylpiperazin-1-yl)-2-(4-(2-((1-(methylsulfonyl)piperidin-4-yl)amino)-5-(trifluoromethyl)pyrimidin-4-yl)-1H-imidazol-1-yl)benzonitrile]
CS(=O)(=O)N1CCC(Nc2ncc(C(F)(F)F)c(-c3cn(-c4ccc(CCN5CCC5)cc4Cl)cn3)n2)CC1 [Example 158, 4-(1-(4-(2-(Azetidin-1-yl)ethyl)-2-chloro-phenyl)-1H-imidazol-4-yl)-N-(1-(methyl-sulfonyl)piperidin-4-yl)-5-(trifluoro-methyl)pyrimidin-2-amine]
CS(=O)(=O)N1CCC(Nc2ncc(C(F)(F)F)c(-c3cn(-c4ccc(C#N)nc4CO)cn3)n2)CC1 [Example 236, 6-(Hydroxymethyl)-5-(4-(2-((1-(methylsulfonyl)piperidin-4-yl)amino)-5-(trifluoromethyl)pyrimidin-4-yl)-1H-imidazol-1-yl)picolinonitrile]
CS(=O)(=O)N1CCC(Nc2ncc(C(F)(F)F)c(-c3cn(-c4cccc(CN5CC[C@H](C#N)C5)c4C(F)(F)F)cn3)n2)CC1 [Example 471, (S)-1-(3-(4-(2-((1-(Methylsulfonyl)piperidin-4-yl)amino)-5-(trifluoromethyl)pyrimidin-4-yl)-1H-imidazol-1-yl)-2-(trifluoromethyl)benzyl)pyrrolidine-3-carbonitrile]
CS(=O)(=O)N1CCC(Nc2ncc(C(F)(F)F)c(-c3cn(-c4ccc(CN5CC[C@H](O)C5)cc4Cl)cn3)n2)CC1 [Example 206, (S)-1-(3 -Chloro-4-(4-(2-((1-(methyl-sulfonyl)piperidin-4-yl)amino)-5-(trifluoromethyl)-pyrimidin-4-yl)-1H-imidazol-1-yl)benzyl)-pyrrolidin-3-ol]
CNC1CCN(c2ccc(-n3cc(-c4nc(NC5CCN(S(C)(=O)=O)CC5)ncc4C(F)(F)F)nc3C)c(F)c2)CC1 [Example 107, 4-(1-(2-Fluoro-4-(4-(methylamino)-piperidin-1-yl)-phenyl)-2-methyl-1H-imidazol-4-yl)-N-(1-(methyl-sulfonyl)piperidin-4-yl)-5-(trifluoro-methyl)pyrimidin-2-amine]
CCN1CCN(c2nccc(-n3cnc(-c4nc(NC5CCN(S(C)(=O)=O)CC5)ncc4C(F)(F)F)c3)c2Cl)CC1 [Example 318, 4-(1-(3-Chloro-2-(4-ethylpiperazin-1-yl)pyridin-4-yl)-1H-imidazol-4-yl)-N-(1-(methylsulfonyl)piperidin-4-yl)-5-(trifluoromethyl)pyrimidin-2-amine]
CS(=O)(=O)N1CCC(Nc2ncc(C(F)(F)F)c(-c3cn(-c4ccc(CN5CCCC5)cc4C#N)cn3)n2)CC1 [Example 346, 2-(4-(2-((1-(Methylsulfonyl)piperidin-4-yl)amino)-5-(trifluoromethyl)pyrimidin-4-yl)-1H-imidazol-1-yl)-5-(pyrrolidin-1-ylmethyl)benzonitrile]
CS(=O)(=O)N1CC[C@H](Nc2ncc(C(F)(F)F)c(-c3cn(-c4cccnc4C(F)(F)F)cn3)n2)[C@H](F)C1 [Example 48, N-((3R,4S)-3-Fluoro-1-(methylsulfonyl)piperidin-4-yl)-5-(trifluoromethyl)-4-(1-(2-(trifluoromethyl)pyridin-3-yl)-1H-imidazol-4-yl)pyrimidin-2-amine]
Cc1ccc(-n2cnc(-c3nc(N[C@H]4CCN(S(=O)(=O)c5cnc(N)nc5)C[C@H]4C)ncc3C(F)(F)F)c2)c(C#N)n1 [Example 153, 3-(4-(2-(((3R,4S)-1-((2-Amino-pyrimidin-5-yl)-sulfonyl)-3-methylpiperidin-4-yl)amino)-5-(trifluoromethyl)-pyrimidin-4-yl)-1H-imidazol-1-yl)-6-methyl-picolinonitrile]
CC1CN(Cc2ccc(-n3cnc(-c4nc(NC5CCN(S(C)(=O)=O)CC5)ncc4C(F)(F)F)c3)c(Cl)c2F)C1 [Example 270, 4-(1-(2-Chloro-3-fluoro-4-((3-methylazetidin-1-yl)methyl)phenyl)-1H-imidazol-4-yl)-N-(1-(methylsulfonyl)piperidin-4-yl)-5-(trifluoromethyl)pyrimidin-2-amine]
CS(=O)(=O)N1CCC(Nc2ncc(C(F)(F)F)c(-c3cn(-c4ccc(CN5CCOCC5)cc4Cl)cn3)n2)CC1 [Example 210, 4-(1-(2-Chloro-4-(morpholinomethyl)-phenyl)-1H-imidazol-4-yl)-N-(1-(methyl-sulfonyl)piperidin-4-yl)-5-(trifluoro-methyl)pyrimidin-2-amine]
CS(=O)(=O)N1CCC(Nc2ncc(C(F)(F)F)c(-c3cn(-c4ccnc(N5CCOCC5)c4C#N)cn3)n2)CC1 [Example 317, 4-(4-(2-((1-(Methylsulfonyl)piperidin-4-yl)amino)-5-(trifluoromethyl)pyrimidin-4-yl)-1H-imidazol-1-yl)-2-morpholinonicotinonitrile]

Reference: patent US11427567B2, “Imidazolyl pyrimidinylamine compounds as CDK2 inhibitors” (Incyte Corporation, priority 2019, dated 2022)
